From US10259712B2, “Method of stabilizing compounds in water, water compositions thereby, and articles containing said water compositions” (priority 2015, dated 2019)
Like-named read-outs stand apart in the source and are kept apart here.

Legend:
[1] = Accelerated ageing of chlorine dioxide in aqueous carriers, 75 days at 50° C.; type: physicochemical
Protocol: A series of dilutions were set up and aged for 75 days at 50° C., (approximately two years of stability of this solution) that creates chlorine dioxide. A solution of chlorine dioxide at a concentration of 0.4 ppm was separately added to dioxytetrahydride gas-infused water and a second sample in tap water. The samples were aged for 75 days at 50° C. Prior to testing the concentration of chlorine dioxide of each sample, a control of chlorine dioxide at a concentration of 0.4 ppm in water was prepared. The concentration of chlorine dioxide measured in the two samples after aging, was 0.4 ppm for the dioxytetrahydride gas-infused water and 0.2 ppm for tap water.
The same protocol was performed on 0.2 ppm concentration of chlorine dioxide and the test results were 0.2 ppm for the dioxytetrahydride gas-infused water and 0.0 ppm in tap water.

[2] = initial 50 ppm
Description: Peroxide test strips supplied by Indigo® Instruments, Part #33815-P100 (referred as “peroxide test strips” or “test strip” herein) were used to determine the amount of hydrogen peroxide in either distilled water or in water infused with dioxytetrahydride gas (referred as “dioxytetrahydride gas-infused water” or “ultra-pure polarized water” herein). Test Strips are capable of measuring peroxide concentrations between 1 and 100 ppm (parts per million). A peroxide test strip was first submerged into 3% water solution of hydrogen peroxide obtained from a drugstore for home use.
A peroxide test strip was submerged into a clear PET-1 bottle (0.5 liter) of distilled water produced by Crystal Springs and another clear PET-1 bottle (0.5 liter) of dioxytetrahydride gas-infused water manufactured by AquaNew, LLC, Sarasota, Fla., respectively. The water produced by AquaNew is highly purified resulting from at least six (6) stages of treatment to obtain on or about 0.3 ppm of Total Dissolved Solids (pharmaceutical-grade water). […] Ten (10) drops of peroxide were added into each sample bottle and a test strip was dipped into each bottle and each bottle was immediately recapped. […] Both bottles with closures were left on a shelf in open light conditions under climate controlled conditions with no direct sunlight.
After two weeks, a test strip was dipped into each bottle and the bottle was immediately recapped. […] The two bottles with closures were placed back onto the shelf.
After four (4) months, another test strip was dipped into each bottle and the bottles were immediately recapped.

[3] = 58° C.
Protocol: Continuous experiments on the relative stabilization of hydrogen peroxide with different aqueous carriers, that is, types of water, including dioxytetrahydride gas-infused water, were carried out.
Very low concentrations of hydrogen peroxide (1.2 weight %) was added to the various aqueous carriers and measured for percent absorption by potassium permanganate titration.
The samples were tested on day 1, 20, 27 and 34. The tests were accelerated in aging when the temperature of each water sample was maintained at 58° C., approximating close to two years of stabilization.

[4] = in dioxytetrahydride gas-infused water, throughout the 34 days, initial 1.2 weight %

Row | peroxide concentration ([2]; in dioxytetrahydride gas-infused water, after four (4) months) | peroxide concentration ([2]; in dioxytetrahydride gas-infused water, after two weeks, clear PET-1 bottle on shelf in open light) | peroxide concentration ([2]; in distilled water, after four (4) months) | peroxide concentration ([2]; in distilled water, after two weeks, clear PET-1 bottle on shelf in open light) | hydrogen peroxide concentration [3, 4] | percent absorption [3, 4] | hydrogen peroxide concentration ([3]; in tap water, day 20, initial 1.2%) | hydrogen peroxide concentration ([3]; in tap water, day 34, initial 1.2%) | Structure (SMILES) | concentration of chlorine dioxide after aging ([1]; in dioxytetrahydride gas-infused water, initial 0.2 ppm) | concentration of chlorine dioxide after aging ([1]; in dioxytetrahydride gas-infused water, initial 0.4 ppm) | concentration of chlorine dioxide after aging ([1]; in tap water, initial 0.2 ppm) | concentration of chlorine dioxide after aging ([1]; in tap water, initial 0.4 ppm)
1 |  |  |  |  |  |  |  |  | [O][Cl+][O-] [chlorine dioxide] | 0.2 ppm | 0.4 ppm | 0.0 ppm | 0.2 ppm
2 | 50 ppm | 50 ppm | 30 ppm | 30 ppm | 1.2% | ~100% | 0.4% | below 0.2% | OO [hydrogen peroxide] |  |  |  | 
